Data reported in patent US10328082B2, “Methods of use and combinations” (Pfizer Inc., priority 2014, dated 2019).

Assays:
[1] = target: T1, human Androgen Receptor (AR) (Homo sapiens, UniProt P10275); assay: Androgen Receptor-Mediated Transcriptional Assay; type: cell-based; conditions: CV-1 cells transiently transfected with full length human AR and ARE-luciferase, 16-18 hours incubation
T1 construct: transiently transfected in T225 cm^2 flasks with a full length human Androgen Receptor (AR) cDNA; expressed in transfected cells; host or cells: CV-1 cells (ATCC CCL-70), transiently transfected
T1 sequence (P10275 1-920): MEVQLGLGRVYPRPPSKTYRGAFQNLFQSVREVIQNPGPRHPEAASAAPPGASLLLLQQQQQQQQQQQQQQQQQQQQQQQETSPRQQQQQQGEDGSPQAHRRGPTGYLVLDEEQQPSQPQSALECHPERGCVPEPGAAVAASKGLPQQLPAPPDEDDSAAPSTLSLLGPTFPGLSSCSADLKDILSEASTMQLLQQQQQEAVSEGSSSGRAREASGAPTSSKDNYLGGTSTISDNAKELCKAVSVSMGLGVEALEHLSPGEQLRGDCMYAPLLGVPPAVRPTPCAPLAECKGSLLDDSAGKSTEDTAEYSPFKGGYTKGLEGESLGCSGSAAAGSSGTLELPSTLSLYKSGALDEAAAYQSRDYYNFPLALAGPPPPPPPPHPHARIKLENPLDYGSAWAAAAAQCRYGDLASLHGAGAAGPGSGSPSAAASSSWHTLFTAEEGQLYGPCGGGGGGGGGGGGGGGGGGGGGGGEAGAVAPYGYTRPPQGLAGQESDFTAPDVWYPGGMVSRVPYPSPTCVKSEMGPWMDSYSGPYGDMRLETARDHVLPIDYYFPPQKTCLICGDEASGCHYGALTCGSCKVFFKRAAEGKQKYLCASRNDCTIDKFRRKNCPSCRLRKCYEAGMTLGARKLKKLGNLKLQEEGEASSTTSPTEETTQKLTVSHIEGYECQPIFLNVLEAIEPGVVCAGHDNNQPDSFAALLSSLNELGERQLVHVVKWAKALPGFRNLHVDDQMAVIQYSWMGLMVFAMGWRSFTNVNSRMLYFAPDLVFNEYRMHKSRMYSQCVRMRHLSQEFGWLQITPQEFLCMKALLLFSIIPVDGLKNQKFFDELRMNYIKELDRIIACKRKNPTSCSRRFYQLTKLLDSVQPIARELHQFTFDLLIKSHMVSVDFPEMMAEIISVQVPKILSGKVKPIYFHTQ
Description: Androgen Receptor-Mediated Transcriptional Assay Summary
CV-1 cells (American Tissue Culture Collection cat# CCL-70) were expanded in Growth Media and transiently transfected in T225 cm^2 flasks with a full length human Androgen Receptor (AR) cDNA in the pcDNA3 expression vector and a human Androgen Response Element (ARE)-luciferase cDNA in the pGL3 vector (both from Invitrogen). DNA (μg) and Lipofectamine (μl) at a ratio of 1:3 were incubated with the cells in a total volume of 55 mL Basal Media for 4 hours. Cells were harvested by trypsinization and frozen back (−150° C. cryomed) at a concentration of 4.3 million cells/mL.
On the day of the assay, frozen cells were thawed and re-suspended in Re-suspension Media and plated at 40,000 cells/well (in 100 μL volume) in 96 well white plates and were incubated for at least 4 h at 37° C., 5% CO2. After incubation, cells were treated with the compounds to be screened. 10 mM stocks of the compounds were serially diluted 1:10 in 100% DMSO followed by an additional 1:100 dilution in Assay Media. These dilution series were added to the cell plates resulting in a further 1:10 dilution and a final % DMSO of 0.1%. The vehicle control wells also contained this dilution of DMSO and the positive control wells contained […] (DHT) as an AR agonist at final concentration of 0.3 nM in 0.1% DMSO. Cells were incubated for 16-18 hours at 37° C. and 5% CO2. Then the culture media was removed from and the cells were lysed in 20 μL of cell lysis reagent for 5 minutes at room temperature. 50 μL of luciferase reagent was added to each well and luminescence, over 5 seconds, was measured.
EC50 (half maximal effective concentration) was calculated from concentration series plots which generated sigmoidal curves. Xlfit software was used to plot the best fit of the % effect vs concentration and to calculate the EC50.

[2] = DSC profile of the crystalline form; type: physicochemical; conditions: demonstrated by the high DSC melting point and DSC profile
Description: DSC measurements were performed with a Discovery DSC (TA instruments) equipped with a refrigerated cooling accessory. Approximately 2-5 mg of solid sample was weighed into a standard/Tzero aluminum pan and non-hermetically sealed. The sample was placed in a cell with continuous dry nitrogen purge (50 mL/min) and heated from 25° C. to 250° C. at 10° C./min heating rate. The cell constant was determined using indium and temperature calibration was performed using indium and tin as standards. The experimental data were analyzed using commercially available software (TA Universal Analysis 2000/Trios software, TA Instruments).
The characterization data disclosed herein confirms the crystalline nature of the 6-[(4R)-4-methyl-1,1-dioxido-1,2,6-thiadiazinan-2-yl]isoquinoline-1-carbonitrile free base Form (1) material and, as such, that it is a useful form for pharmaceutical development. For example, crystalline materials are generally considered to be an advantageous form for drug substance manufacturing because, for example, they are more easily purified, can be prepared with higher yields, have improved filtration and drying characteristics and improved flow and handling characteristics.

Row | Compound | EC50 ([1]; Compounds 1-22) [nM] | further results
1 | 6-[(4S)-4-(3-methylphenyl)-1,1-dioxido-1,2,6-thiadiazinan-2-yl]isoquinoline-1-carbonitrile [Compound 20] | 8 | –
2 | C[C@@H]1CNS(=O)(=O)N(c2ccc3c(C#N)nccc3c2)C1 [6-[(4R)-4-methyl-1,1-dioxido-1,2,6-thiadiazinan-2-yl]isoquinoline-1-carbonitrile] | – | hygroscopic nature [2]: non-hygroscopic; thermal stability [2]: thermal stability
3 | C[C@H]1CN(C)S(=O)(=O)N1c1ccc2c(C#N)nccc2c1 [Compound 5] | 5 | –
4 | 6-{(2R,5R)-2-[(1R)-1-hydroxyethyl]-5-methylpyrrolidin-1-yl}isoquinoline-1-carbonitrile [Compound 31] | – | EC50 ([1]; Compounds 23-39): 474 nM
5 | 6-[(4S)-4-ethyl-1,1-dioxido-1,2,6-thiadiazinan-2-yl]isoquinoline-1-carbonitrile [Compound 21] | 8 | –
